Reference: ChEMBL document CHEMBL1201862, “PubChem BioAssay data set” (2004)
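Compound exposure: 48 hours, 5 concentrations, 96-well plates. GI50 is the concentration that inhibits growth by half.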 The source made the active and inactive calls. No stated cut-off is given here; in the data, active = GI50 up to about 1.1 µM and inactive = higher.

Key:
Assay in all cases: DTP human tumour cell line panel, 48 h
LOX IMVI = system: LOX IMVI
KM12 = system: KM12
786-0 = system: 786-0
RXF 393 = system: RXF 393
A549 = system: A549
SR = system: SR
NCI-H23 = system: NCI-H23
HT-29 = system: HT-29
Hs-578T = system: Hs-578T
IGROV-1 = system: IGROV-1
DU-145 = system: DU-145
MOLT-4 = system: MOLT-4
NCI-H226 = system: NCI-H226
OVCAR-5 = system: OVCAR-5
RPMI-8226 = system: RPMI-8226
SF-268 = system: SF-268
HL-60 = system: HL-60
HCT-116 = system: HCT-116
CCRF-CEM = system: CCRF-CEM
SK-OV-3 = system: SK-OV-3

SMILES | GI50 (LOX IMVI) | GI50 (KM12) | GI50 (786-0) | GI50 (RXF 393) | GI50 (A549) | GI50 (SR) | GI50 (NCI-H23) | GI50 (HT-29) | GI50 (Hs-578T) | GI50 (IGROV-1) | GI50 (DU-145) | GI50 (MOLT-4) | GI50 (NCI-H226) | GI50 (OVCAR-5) | GI50 (RPMI-8226) | GI50 (SF-268) | GI50 (HL-60) | GI50 (HCT-116) | GI50 (CCRF-CEM) | GI50 (SK-OV-3)
CC(C)(C)OC(=O)CN1C(=O)CC1CC(=O)c1ccccc1 (stereo unspecified) | 16.9 µM (inactive) | 20 µM (inactive) | 17.5 µM (inactive) | 18.5 µM (inactive) | > 100 µM (inactive) | 2.89 µM (inactive) | 18.5 µM (inactive) | 17.2 µM (inactive) | 26.1 µM (inactive) | 18.3 µM (inactive) | 17.9 µM (inactive) | 4.39 µM (inactive) | 25.1 µM (inactive) | 17.5 µM (inactive) | 3.05 µM (inactive) | 17.9 µM (inactive) | 20 µM (inactive) | 24.8 µM (inactive) | – | –
CCCCC1(NN=C2CCCCC2)C(=O)N(c2ccccc2)N(c2ccccc2)C1=O | – | > 100 µM (inactive) | > 100 µM (inactive) | > 100 µM (inactive) | > 100 µM (inactive) | 17.3 µM (inactive) | > 100 µM (inactive) | > 100 µM (inactive) | > 100 µM (inactive) | > 100 µM (inactive) | > 100 µM (inactive) | 26.2 µM (inactive) | – | – | 62.1 µM (inactive) | > 100 µM (inactive) | 18.1 µM (inactive) | > 100 µM (inactive) | 21.6 µM (inactive) | > 100 µM (inactive)
CN(C)c1ccc(/C=C2\C[C@H]3[C@@H]4CCc5cc(O)ccc5[C@H]4CC[C@]3(C)C2=O)cc1 | > 100 µM (inactive) | > 100 µM (inactive) | – | 48.5 µM (inactive) | > 100 µM (inactive) | > 100 µM (inactive) | > 100 µM (inactive) | 38.3 µM (inactive) | 10.5 µM (inactive) | 48 µM (inactive) | > 100 µM (inactive) | > 100 µM (inactive) | 25.1 µM (inactive) | > 100 µM (inactive) | > 100 µM (inactive) | 21.3 µM (inactive) | – | – | > 100 µM (inactive) | > 100 µM (inactive)
NNC(=O)C(O)C(O)C(=O)NN (stereo unspecified) | 65.9 µM (inactive) | > 100 µM (inactive) | 98.4 µM (inactive) | > 100 µM (inactive) | 66.4 µM (inactive) | 57.5 µM (inactive) | > 100 µM (inactive) | > 100 µM (inactive) | > 100 µM (inactive) | > 100 µM (inactive) | > 100 µM (inactive) | 64.3 µM (inactive) | > 100 µM (inactive) | > 100 µM (inactive) | > 100 µM (inactive) | > 100 µM (inactive) | – | 73.3 µM (inactive) | > 100 µM (inactive) | > 100 µM (inactive)
COC(=O)[C@@H]1CC(C(CN)c2cn(C(=O)OC(C)(C)C)c3ccccc23)C(=O)N1C(=O)OC(C)(C)C (stereo partly specified) | 14.8 µM (inactive) | 52.2 µM (inactive) | 31.3 µM (inactive) | 18 µM (inactive) | 35.3 µM (inactive) | 23.1 µM (inactive) | 35.8 µM (inactive) | 24.8 µM (inactive) | 28.2 µM (inactive) | 17.9 µM (inactive) | 44.2 µM (inactive) | 17.1 µM (inactive) | 29.9 µM (inactive) | 27.2 µM (inactive) | 10.6 µM (inactive) | 27.5 µM (inactive) | 21.8 µM (inactive) | 44.3 µM (inactive) | 14.4 µM (inactive) | –
O=C1N/N=C\c2ccc(cc2)OCc2cccc(n2)COc2ccc(cc2)/C=N\NC1=O | – | > 25 µM (inactive) | > 25 µM (inactive) | > 25 µM (inactive) | > 25 µM (inactive) | > 25 µM (inactive) | > 25 µM (inactive) | > 25 µM (inactive) | 13.6 µM (inactive) | > 25 µM (inactive) | > 25 µM (inactive) | > 25 µM (inactive) | > 25 µM (inactive) | > 25 µM (inactive) | > 25 µM (inactive) | > 25 µM (inactive) | > 25 µM (inactive) | > 25 µM (inactive) | > 25 µM (inactive) | > 25 µM (inactive)
O=C(O)CCc1nc(-c2ccccc2-n2cccc2)no1 | > 100 µM (inactive) | 5.89 µM (inactive) | > 100 µM (inactive) | > 100 µM (inactive) | > 100 µM (inactive) | 5.46 µM (inactive) | > 100 µM (inactive) | 57.3 µM (inactive) | > 100 µM (inactive) | 73.1 µM (inactive) | > 100 µM (inactive) | – | > 100 µM (inactive) | > 100 µM (inactive) | > 100 µM (inactive) | > 100 µM (inactive) | – | > 100 µM (inactive) | – | > 100 µM (inactive)
C#CC(C)(C)Oc1cc(OC)c2c(=O)c3ccccc3n(C)c2c1 | – | 10.9 µM (inactive) | 7.46 µM (inactive) | 25.2 µM (inactive) | 9.86 µM (inactive) | 2.83 µM (inactive) | – | 4.81 µM (inactive) | 17.5 µM (inactive) | 0.0238 µM (active) | 12.4 µM (inactive) | 3.85 µM (inactive) | 16.6 µM (inactive) | 31.8 µM (inactive) | 4.4 µM (inactive) | 11.6 µM (inactive) | 10.9 µM (inactive) | 17.4 µM (inactive) | 5.27 µM (inactive) | 23 µM (inactive)
CCn1c2ccccc2c2cc(NC(=O)c3c(C)[nH]c(=O)[nH]c3=S)ccc21 | > 100 µM (inactive) | 18.5 µM (inactive) | – | 35.6 µM (inactive) | – | 41 µM (inactive) | 38 µM (inactive) | 48.2 µM (inactive) | 50.4 µM (inactive) | > 10 µM (inactive) | 42.1 µM (inactive) | 24.3 µM (inactive) | 33 µM (inactive) | 21.4 µM (inactive) | 40.6 µM (inactive) | – | 37 µM (inactive) | 43.3 µM (inactive) | 29.2 µM (inactive) | > 100 µM (inactive)
C#CCn1ncc2c(SCc3ccccc3)ncnc21 | > 100 µM (inactive) | > 100 µM (inactive) | > 100 µM (inactive) | > 100 µM (inactive) | > 100 µM (inactive) | 18.8 µM (inactive) | > 100 µM (inactive) | > 100 µM (inactive) | > 100 µM (inactive) | > 100 µM (inactive) | > 100 µM (inactive) | 11.8 µM (inactive) | > 100 µM (inactive) | > 100 µM (inactive) | > 100 µM (inactive) | > 100 µM (inactive) | – | 62.8 µM (inactive) | 79.8 µM (inactive) | > 100 µM (inactive)
COc1ccc(C2SCC(=O)N2c2ccc(-c3ccc(-n4c(-c5ccccc5)nc5ccccc5c4=O)cc3)cc2)cc1OC (stereo unspecified) | 17.8 µM (inactive) | 7.85 µM (inactive) | 44.4 µM (inactive) | > 100 µM (inactive) | 27.9 µM (inactive) | 26.2 µM (inactive) | > 100 µM (inactive) | 45.2 µM (inactive) | 69.5 µM (inactive) | 37.7 µM (inactive) | 98.2 µM (inactive) | 22.4 µM (inactive) | 52.7 µM (inactive) | – | 31.7 µM (inactive) | 43.5 µM (inactive) | 30.8 µM (inactive) | 67.8 µM (inactive) | 20 µM (inactive) | 40.3 µM (inactive)
CC1=C(C)Cc2c(O)ccc(O)c2C1 | 19.9 µM (inactive) | 31.3 µM (inactive) | – | 15.9 µM (inactive) | 18.7 µM (inactive) | 12.6 µM (inactive) | 27.9 µM (inactive) | 14.1 µM (inactive) | 17.7 µM (inactive) | – | 20.1 µM (inactive) | 19.3 µM (inactive) | 17.4 µM (inactive) | 20.7 µM (inactive) | 6 µM (inactive) | 15.5 µM (inactive) | 5.36 µM (inactive) | 15.9 µM (inactive) | 3.12 µM (inactive) | 76.2 µM (inactive)
COc1cc2ccnc3c2c(c1OC)N(C)C=C3 | 21.5 µM (inactive) | 25.9 µM (inactive) | 17.2 µM (inactive) | 25.1 µM (inactive) | 17.7 µM (inactive) | 21.3 µM (inactive) | 19.4 µM (inactive) | – | 29.3 µM (inactive) | – | 34.5 µM (inactive) | 30 µM (inactive) | 21.2 µM (inactive) | 33 µM (inactive) | 24.4 µM (inactive) | 35.2 µM (inactive) | – | 11 µM (inactive) | – | 16.5 µM (inactive)
CC(C)(C)OC(=O)NC(Cc1ccc(OCc2ccccc2)cn1)C(=O)N1CCSCC1 (stereo unspecified) | 28.3 µM (inactive) | 36.4 µM (inactive) | 57.9 µM (inactive) | 33.3 µM (inactive) | 56.4 µM (inactive) | 27 µM (inactive) | 28.6 µM (inactive) | 32.7 µM (inactive) | 77.3 µM (inactive) | 75.9 µM (inactive) | 51.9 µM (inactive) | 22.9 µM (inactive) | – | 93.1 µM (inactive) | 21.7 µM (inactive) | 65.3 µM (inactive) | 16.4 µM (inactive) | 48.6 µM (inactive) | 29.9 µM (inactive) | 86.3 µM (inactive)
CC(=O)Nc1c(C)cc(OCC(=O)O)cc1C | > 100 µM (inactive) | > 100 µM (inactive) | > 100 µM (inactive) | > 100 µM (inactive) | > 100 µM (inactive) | > 100 µM (inactive) | > 100 µM (inactive) | > 100 µM (inactive) | > 100 µM (inactive) | > 100 µM (inactive) | > 100 µM (inactive) | – | > 100 µM (inactive) | > 100 µM (inactive) | > 100 µM (inactive) | > 100 µM (inactive) | > 100 µM (inactive) | > 100 µM (inactive) | > 100 µM (inactive) | > 100 µM (inactive)
